# Experimental data from PubChem BioAssay (NCI).
#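 Interpolation was linear, between the two tested concentrations surrounding the appropriate level; five concentrations were tested over 48 hours in 96-well plates. TGI: concentration producing complete growth inhibition.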
# Key:
# Assay in all cases: DTP human tumour cell line panel, 48 h
# OVCAR-5 ovarian = tested on: OVCAR-5 ovarian
# EKVX NSCLC = tested on: EKVX NSCLC
# OVCAR-4 ovarian = tested on: OVCAR-4 ovarian
# NCI-H226 lung = tested on: NCI-H226 lung
# RPMI-8226 leukemia = tested on: RPMI-8226 leukemia
# RXF 393 renal = tested on: RXF 393 renal
# ACHN renal = tested on: ACHN renal
# SF-295 CNS = tested on: SF-295 CNS
# NCI-H460 lung = tested on: NCI-H460 lung
# A549 NSCLC = tested on: A549 NSCLC
# UACC-257 melanoma = tested on: UACC-257 melanoma
# OVCAR-8 ovarian = tested on: OVCAR-8 ovarian
# NCI-H23 lung = tested on: NCI-H23 lung
# K-562 leukemia = tested on: K-562 leukemia
# U251 CNS = tested on: U251 CNS
# MALME-3M melanoma = tested on: MALME-3M melanoma
# SW-620 colon = tested on: SW-620 colon
# OVCAR-3 ovarian = tested on: OVCAR-3 ovarian
# COLO 205 colon = tested on: COLO 205 colon
# MDA-MB-435 = tested on: MDA-MB-435
# HOP-62 NSCLC = tested on: HOP-62 NSCLC
# SF-268 CNS = tested on: SF-268 CNS
# SK-MEL-28 melanoma = tested on: SK-MEL-28 melanoma
# SK-MEL-5 melanoma = tested on: SK-MEL-5 melanoma
# UO-31 renal = tested on: UO-31 renal
# UACC-62 melanoma = tested on: UACC-62 melanoma
# TK-10 renal = tested on: TK-10 renal
# HCC-2998 colon = tested on: HCC-2998 colon
# CAKI-1 renal = tested on: CAKI-1 renal
# HL-60(TB) leukemia = tested on: HL-60(TB) leukemia
# KM12 colon = tested on: KM12 colon
# M14 melanoma = tested on: M14 melanoma
# SNB-19 CNS = tested on: SNB-19 CNS
# SNB-75 CNS = tested on: SNB-75 CNS
# 786-0 renal = tested on: 786-0 renal
# SN12C renal = tested on: SN12C renal
# HS 578T breast = tested on: HS 578T breast
# CCRF-CEM leukemia = tested on: CCRF-CEM leukemia
# T-47D breast = tested on: T-47D breast
# IGROV1 ovarian = tested on: IGROV1 ovarian
# HCT-15 colon = tested on: HCT-15 colon
# LOX IMVI melanoma = tested on: LOX IMVI melanoma
# DU-145 prostate = tested on: DU-145 prostate
# NCI/ADR-RES ovarian = tested on: NCI/ADR-RES ovarian
# PC-3 prostate = tested on: PC-3 prostate
# MDA-N = tested on: MDA-N
# HCT-116 colon = tested on: HCT-116 colon
# MCF7 breast = tested on: MCF7 breast
# SK-MEL-2 melanoma = tested on: SK-MEL-2 melanoma
# HT29 colon = tested on: HT29 colon
# NCI-H522 lung = tested on: NCI-H522 lung
# BT-549 breast = tested on: BT-549 breast
# SR leukemia = tested on: SR leukemia
# MOLT-4 leukemia = tested on: MOLT-4 leukemia
# MDA-MB-231 breast = tested on: MDA-MB-231 breast
# SK-OV-3 ovarian = tested on: SK-OV-3 ovarian
smiles,measurement,setting,value
CCC1(CC)C(=O)N(C(=O)c2ccc(C)cc2)N(C(=O)c2ccc(C)cc2)C1=O,TGI,OVCAR-5 ovarian,> 75 µM
same,TGI,EKVX NSCLC,> 75 µM
same,TGI,OVCAR-4 ovarian,> 75 µM
same,TGI,NCI-H226 lung,> 75 µM
same,TGI,RPMI-8226 leukemia,> 75 µM
same,TGI,RXF 393 renal,> 75 µM
same,TGI,ACHN renal,> 75 µM
same,TGI,SF-295 CNS,> 75 µM
same,TGI,NCI-H460 lung,> 75 µM
same,TGI,A549 NSCLC,> 75 µM
same,TGI,UACC-257 melanoma,> 75 µM
same,TGI,OVCAR-8 ovarian,> 75 µM
same,TGI,NCI-H23 lung,> 75 µM
same,TGI,K-562 leukemia,> 75 µM
same,TGI,U251 CNS,> 75 µM
same,TGI,MALME-3M melanoma,62.7 µM
same,TGI,SW-620 colon,> 75 µM
same,TGI,OVCAR-3 ovarian,46.4 µM
same,TGI,COLO 205 colon,> 75 µM
same,TGI,MDA-MB-435,> 75 µM
same,TGI,HOP-62 NSCLC,> 75 µM
same,TGI,SF-268 CNS,> 75 µM
same,TGI,SK-MEL-28 melanoma,> 75 µM
same,TGI,SK-MEL-5 melanoma,> 75 µM
same,TGI,UO-31 renal,> 75 µM
same,TGI,UACC-62 melanoma,> 75 µM
same,TGI,TK-10 renal,> 75 µM
same,TGI,HCC-2998 colon,> 75 µM
same,TGI,CAKI-1 renal,> 75 µM
same,TGI,HL-60(TB) leukemia,> 75 µM
same,TGI,KM12 colon,> 75 µM
same,TGI,M14 melanoma,> 75 µM
same,TGI,SNB-19 CNS,> 75 µM
same,TGI,SNB-75 CNS,> 75 µM
same,TGI,786-0 renal,> 75 µM
same,TGI,SN12C renal,> 75 µM
same,TGI,HS 578T breast,> 75 µM
same,TGI,CCRF-CEM leukemia,> 75 µM
same,TGI,T-47D breast,> 75 µM
same,TGI,IGROV1 ovarian,> 75 µM
same,TGI,HCT-15 colon,> 75 µM
same,TGI,LOX IMVI melanoma,> 75 µM
same,TGI,DU-145 prostate,> 75 µM
same,TGI,NCI/ADR-RES ovarian,> 75 µM
same,TGI,PC-3 prostate,> 75 µM
same,TGI,MDA-N,> 75 µM
same,TGI,HCT-116 colon,> 75 µM
same,TGI,MCF7 breast,> 75 µM
same,TGI,SK-MEL-2 melanoma,> 75 µM
same,TGI,HT29 colon,> 75 µM
same,TGI,NCI-H522 lung,51.6 µM
same,TGI,BT-549 breast,> 75 µM
same,TGI,SR leukemia,68.8 µM
same,TGI,MOLT-4 leukemia,58.5 µM
same,TGI,MDA-MB-231 breast,> 75 µM
same,TGI,SK-OV-3 ovarian,> 75 µM
